These results are taken from patent US11241011B2, “Microbiocidal quinoline (thio)carboxamide derivatives” (SYNGENTA PARTICIPATIONS AG, priority 2017, dated 2022).

The subject of one data set is Gaeumannomyces graminis. The experiment in a line: Gaeumannomyces graminis / liquid culture (take-all of cereals). It is filed as cell-based. Conditions: 20 ppm, growth inhibition photometrically 4-5 days after application, vs untreated control. As to the method:
Gaeumannomyces Graminis/Liquid Culture (Take-All of Cereals)
Mycelial fragments of the fungus from cryogenic storage were directly mixed into nutrient broth (PDB potato dextrose broth). After placing a (DMSO) solution of test compound into a microtiter plate (96-well format), the nutrient broth containing the fungal spores iss added. The test plates are incubated at 24° C. and the inhibition of growth is determined photometrically 4-5 days after application.

A word on the melting point: it is the temperature, or range, at which the solid turns liquid. The molecule `O=C(Nc1cnc2c(F)cccc2c1)C(CC#CC1CC1)CC(F)(F)F` (stereo not shown) [Compound E-2, 5-cyclopropyl-N-(8-fluoro-3-quinolyl)-2-(2,2,2-trifluoroethyl)pent-4-ynamide] displayed a melting point of 182 to 184 °C.

`C#CCC(C)(CC(C)C)C(=O)Nc1cnc2c(F)cccc2c1` (stereo not shown) [Compound E-3, N-(8-fluoro-3-quinolyl)-2-isobutyl-2-methyl-pent-4-ynamide] had a melting point of 125 to 127 °C.

Molecule `CC#CCC(C)(CC(C)C)C(=O)Nc1cnc2c(F)cccc2c1` (stereo not shown) [Compound E-5, N-(8-fluoro-3-quinolyl)-2-isobutyl-2-methyl-hex-4-ynamide] came in with a melting point of 139 to 140 °C. Further, the “control of Gaeumannomyces graminis” value with Gaeumannomyces graminis is “at least 80%”.
